# Tested on: DIO-NASH mouse model
# Test: Biopsy-confirmed DIO-NASH (AMLN diet) mouse model, 12 weeks of daily treatment
# Format: in vivo
# Description: ALT-801 was evaluated for its metabolic and anti-fibrotic effects during 12 weeks of treatment in the well-documented Amylin Liver NASH (AMLN) DIO-NASH mouse model[22],[44] at Gubra ApS. Mice had ad libitum access to tap water and a diet high in fat (40%, containing 18% trans-fat; 40% carbohydrates, 20% fructose) and 2% cholesterol (AMLN diet; D09100301, Research Diets, New Brunswick, NJ). Semaglutide (GLP-1R agonist) and elafibranor (peroxisome proliferator-activated receptor [PPAR]-α/δ agonist) were included as comparators to assess the effects of added GCGR agonism, and a previously observed modest antifibrotic effect in this assay, respectively. […]
# After 29 weeks of diet induction (week-3 relative to start of treatment) a pre-treatment liver biopsy was performed as described in detail previously[44] to select animals for stratification and randomization based on histological assessment. Liver histology was scored using the NAS and fibrosis stage criteria defined by the NASH Clinical Research Network Pathology Committee[47] and only those animals with confirmed steatosis (score ≥ 2) and fibrosis (stage ≥ 1) were selected for stratification and randomization. A stratified randomization into treatment groups was performed for the biopsy-proven DIO-NASH mice according to liver collagen type 1 alpha 1 (Col1A1) quantification at week-3. […]
structure (smiles),measurement,setting,value
CSc1ccc(C(=O)/C=C/c2cc(C)c(OC(C)(C)C(=O)O)c(C)c2)cc1 [elafibranor],Animals with reduction in fibrosis stage of 1 or greater compared to the start of treatment,12 weeks,75%
same,Body weight vs. vehicle,"daily for 12 weeks, ALT-801 5 and 10 nmol/kg s.c., semaglutide 10 nmol/kg s.c., elafibranor 78 μmol/kg oral, stabilized after 2–3 weeks, n = 11–12",significant (p < 0.001) body weight decreases
